From US20260207535A1, “CRIBLAGE INHIBITEURS USP8” (COMMISSARIAT A L'ENERGIE ATOMIQUE ET AUX ENERGIES …, priority 2022, published 2026) come the findings set out here.

The test concerns the target T1, Full length USP8 (USP8FL) (Homo sapiens, UniProt P40818).
T1 construct: purchased BostonBiochem E-520
T1 sequence (P40818 1-1118): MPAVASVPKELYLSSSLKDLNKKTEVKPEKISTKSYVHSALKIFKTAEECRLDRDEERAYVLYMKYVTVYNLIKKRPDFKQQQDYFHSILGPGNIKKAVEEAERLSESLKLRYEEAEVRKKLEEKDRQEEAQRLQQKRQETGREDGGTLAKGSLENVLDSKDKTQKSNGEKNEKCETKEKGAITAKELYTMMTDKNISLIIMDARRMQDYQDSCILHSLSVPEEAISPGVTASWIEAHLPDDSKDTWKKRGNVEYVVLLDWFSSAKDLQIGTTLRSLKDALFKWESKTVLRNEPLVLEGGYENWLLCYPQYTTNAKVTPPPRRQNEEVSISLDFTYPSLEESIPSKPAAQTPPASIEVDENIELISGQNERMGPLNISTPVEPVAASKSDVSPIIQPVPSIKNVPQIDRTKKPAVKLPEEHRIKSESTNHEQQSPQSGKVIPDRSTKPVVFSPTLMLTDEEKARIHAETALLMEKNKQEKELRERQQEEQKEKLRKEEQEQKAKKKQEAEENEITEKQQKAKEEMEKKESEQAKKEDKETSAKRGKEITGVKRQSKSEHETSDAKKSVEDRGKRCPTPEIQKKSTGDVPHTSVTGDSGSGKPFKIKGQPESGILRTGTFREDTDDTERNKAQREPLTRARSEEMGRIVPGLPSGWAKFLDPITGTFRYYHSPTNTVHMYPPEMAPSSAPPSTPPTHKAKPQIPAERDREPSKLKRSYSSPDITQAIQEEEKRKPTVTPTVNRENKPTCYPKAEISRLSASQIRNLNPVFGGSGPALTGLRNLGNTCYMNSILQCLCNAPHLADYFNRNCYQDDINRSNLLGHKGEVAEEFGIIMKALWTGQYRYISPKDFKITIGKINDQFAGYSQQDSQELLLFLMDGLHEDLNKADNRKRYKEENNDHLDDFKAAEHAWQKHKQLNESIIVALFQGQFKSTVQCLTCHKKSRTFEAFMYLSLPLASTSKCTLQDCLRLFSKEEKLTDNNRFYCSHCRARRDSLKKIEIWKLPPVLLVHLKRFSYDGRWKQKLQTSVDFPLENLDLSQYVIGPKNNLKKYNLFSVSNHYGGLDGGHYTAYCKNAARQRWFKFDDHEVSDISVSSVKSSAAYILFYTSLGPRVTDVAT
In words: USP8FL (full length USP8) enzymatic inhibition, Ub-Rhodamine 110 hydrolysis in L-cysteine buffer. It counts as biochemical. As for the experimental part:
USP8 FL (USP8 Full Length) was incubated at a concentration of 75 nM in the presence of Ub-Rho (UBIQUIGENT ref. 60-0117-050) at a final concentration of 0.1 μM, in conditions ensuring linearity of enzyme activity throughout the assay in a specific buffer. Compounds were added to the reaction mix at different doses just before the substrate. The enzymatic reaction kinetics were monitored by measuring fluorescence elicited by the hydrolysis of Ub-Rho over 30 min.
In this setup, an in-house purified catalytic domain of USP8 (USP8CD) was used at a concentration of 80 nM in the presence of the artificial substrate Ubiquitin-Rhodamine 110 (Ub-Rho) (ref: 60-0117-050 Ubiquigent) at a final concentration of 0.1 μM, in conditions ensuring linearity of enzyme activity throughout the assay incubation time. Enzymatic assay was performed in a Tris HCl buffer (40 mM Tris HCl pH 7.4, Ovalbumine 0.5 mg/ml, Cysteine HCl 5.5 mM). Compounds to be tested were added to the reaction mix and incubated with enzyme for 20 min, before the substrate. The enzymatic reaction kinetics were monitored by measuring fluorescence elicited by the hydrolysis of the peptidyl Ub-Rho over 30 minutes. The negative control was the solvent DMSO at 1%.
Full length USP8 (USPBFL) (BostonBiochem ref. E-520) were used at a concentration of 75 nM in the presence of a ubiquitin substrate, i.e., the Ub-Rhodamine 110 (Ub-Rho) (Ubiquigent ref. 60-0117-050) at a final concentration of 0.1 μM. Enzymatic assays were performed as described for USP8-CD except that USP-FL was used at a concentration of 75 nM. The compounds were used at a final concentration of 0.1, 1, 5, 10, 50 and 100 μM in DMSO 0.5%. The USP8 catalytic activity was monitored both before adding the substrate (TO) and after twenty minutes of incubation at room temperature (Final Time TF). The enzymatic reaction kinetics were monitored by measuring fluorescence elicited by the hydrolysis of the Ub-Rho bound over 30 minutes.

On to `Cc1cc(C(C#N)c2ccc(Cl)cc2)c(Cl)cc1NC(=O)c1cc(I)cc(I)c1O` (centres unmarked) [Closantel, reference compound], for which the “activity against USP8 (CD and FL)” value (USP8 CD and FL) is listed as “active”. For the same molecule, where the note is “USP8 FL 75 nM, Ub-Rho 0.1 μM, L-cysteine buffer, read-out: USP8FL inhbition IC50 [μM] (CI: Confidence Interval)”, the IC50 (usually the concentration at which inhibition is half-maximal) turned out to be 12 µM.
